Measured values reported in US20260250636A1, “A METHOD FOR PRODUCING A BIOENGINEERED MAMMAL INDUCED PLURIPOTENT STEM CELL-DERIVED CARDIAC ORGANOID” (INSTITUT NATIONAL DE LA SANTÉ ET DE LA RECHERCHE MÉDICALE, priority 2022, published 2026).

Columns and labels:
Assay type in all cases: cell-based, human
[1] = test system: c-met cardiac organoids; experiment: OCR/ECAR and energy phenotype (Seahorse XFp) under cobalt chloride-mimicked hypoxia
Procedure: Cardiac organoids cultured for 3-4 months in 96 wells were transferred randomly to XFp mini plates (1-6 organoids/well, 300 to 1100 μm in diameter) (Seahorse, Agilent). The cardiac culture medium was treated with 200 μM CoCl2 (sigma) concentration for 24 hours. To evaluate the effects of HGF stimulation and c-met inhibition we have used respectively HGF at 50 ng/ml (R&D Systems) and SU11274 at […] (Sigma) under hypoxia. OCR, ECAR and energy phenotype test were all measured using a Seahorse XFp analyzer (Seahorse, Agilent). On the day of testing, cells were incubated in XF assay medium for 1 hr at 37° C. in non-CO2 incubator before measurement. Cell energy phenotype kit was used with port A containing the FCCP/oligomycin stressor mix at 2.0/1.0 μM (final well concentration). OCR and ECAR were normalized to the cell numbers of each wells. Cells were stained with DAPI and calculated from Leica confocal microscope images.

[2] = test system: control cardiac organoids; experiment: as above; details: after CoCl2 hypoxia 24 h; control group as compared to c-met group
Procedure: (§1) Cardiac organoids cultured for 3-4 months in 96 wells were transferred randomly to XFp mini plates (1-6 organoids/well, 300 to 1100 μm in diameter) (Seahorse, Agilent). The cardiac culture medium was treated with 200 μM CoCl2 (sigma) concentration for 24 hours. To evaluate the effects of HGF stimulation and c-met inhibition we have used respectively HGF at 50 ng/ml (R&D Systems) and SU11274 at 5 M (Sigma) under hypoxia.
OCR, ECAR and energy phenotype test were all measured using a Seahorse XFp analyzer (Seahorse, Agilent). On the day of testing, cells were incubated in XF assay medium for 1 hr at 37° C. in non-CO2 incubator before measurement. Cell energy phenotype kit was used with port A containing the FCCP/oligomycin stressor mix at 2.0/1.0 μM (final well concentration). OCR and ECAR were normalized to the cell numbers of each wells. Cells were stained with DAPI and calculated from Leica confocal microscope images.

[3] = test system: c-met cardiac organoids; experiment: Cobalt chloride-mimicked hypoxia, proBNP and caspase-3 immunostaining; details: 200 μM CoCl2 hypoxia 24 h, n=8, normalized by DAPI fluorescence intensity
Procedure: (§2) Cardiac organoids cultured on 24 or 96-well culture plates were washed with phosphate-buffered saline (PBS), fixed with 4% paraformaldehyde in PBS for 60 min, permeabilized with 0.2% Triton X-100 (Sigma) in PBS and blocked 10% serum. Primary antibodies were diluted in PBS 10% serum at the following concentrations: phospho-Met; 1:100 (Cell Signaling Technologies), phospho-STAT3; 1:200 (Cell Signaling Technologies), Sarcomeric Alpha Actinin; 1:200 (Abcam), MLC-2A; 1:100 (Synaptic Systems), MLC-2V; 1:100 (Synaptic Systems), Cardiac troponin T; 1:100 (Abcam), CD31; 1:100 (Abcam), Caspase-3; 1:100 (Cell Signaling Technologies), ProBNP; 1:100 (Abcam), and then washed three times in PBS. The samples were incubated with secondary antibodies in antibody dilution buffer, then washed in PBS. Nuclei were labeled with DAPI mounting medium. The negative control performed a secondary antibody only (data not shown). Visualization and capture were realized with a Leica confocal microscope and LAS AF software.
as §1

[4] = test system: control cardiac organoids; experiment: as above; details: 200 μM CoCl2 hypoxia 24 h, n=5, normalized by DAPI fluorescence intensity
Procedure: as §2, §1

Row | SMILES | glycolysis activity at the baseline (ECAR) ([1]; c-met organoids, CoCl2 + SU11274 24 h, compared with HGF-treated (50 ng/ml) control organoids) | energy phenotype (OCR versus ECAR) ([1]; after CoCl2 hypoxia 24 h, c-met organoids versus control) | glycolysis activity (ECAR) [2] | caspase-3+ cells intensity [3] | proBNP+ cells intensity [3] | caspase-3+ cells intensity [4] | proBNP+ cells intensity [4]
1 | Cc1[nH]c(/C=C2\C(=O)Nc3ccc(S(=O)(=O)N(C)c4cccc(Cl)c4)cc32)c(C)c1C(=O)N1CCN(C)CC1 [SU11274] | significantly decreased |  |  |  |  |  | 
2 | [Cl][Co][Cl] [cobalt, cobalt chloride] |  | more energetic than control | decreased | 0.34±0.16 | 0.73±1.4 | 0.61±0.11 | 0.78±0.16
